Counter-ions that a name gives are not always drawn.
Experiments:
[1] = tested on: fecal water content; test: Pharmacodynamic model: effect of test compounds on fecal water content; type: in vivo, rat; conditions: female Sprague Dawley rats, 3 mg/kg oral, feces collected 16 hrs; for % Fecal water: mean of 6
[2] = molecular target: T1, human NHE3 (Homo sapiens, UniProt P48764); test: Cell-based assay of NHE-3 activity (persistent inhibition), human; conditions: human Persistence assay; for IC50: 60 min incubation, washout, recovery initiated 10 min after washout
T1 construct: host or cells: PS120 fibroblasts
T1 sequence (P48764 26-834): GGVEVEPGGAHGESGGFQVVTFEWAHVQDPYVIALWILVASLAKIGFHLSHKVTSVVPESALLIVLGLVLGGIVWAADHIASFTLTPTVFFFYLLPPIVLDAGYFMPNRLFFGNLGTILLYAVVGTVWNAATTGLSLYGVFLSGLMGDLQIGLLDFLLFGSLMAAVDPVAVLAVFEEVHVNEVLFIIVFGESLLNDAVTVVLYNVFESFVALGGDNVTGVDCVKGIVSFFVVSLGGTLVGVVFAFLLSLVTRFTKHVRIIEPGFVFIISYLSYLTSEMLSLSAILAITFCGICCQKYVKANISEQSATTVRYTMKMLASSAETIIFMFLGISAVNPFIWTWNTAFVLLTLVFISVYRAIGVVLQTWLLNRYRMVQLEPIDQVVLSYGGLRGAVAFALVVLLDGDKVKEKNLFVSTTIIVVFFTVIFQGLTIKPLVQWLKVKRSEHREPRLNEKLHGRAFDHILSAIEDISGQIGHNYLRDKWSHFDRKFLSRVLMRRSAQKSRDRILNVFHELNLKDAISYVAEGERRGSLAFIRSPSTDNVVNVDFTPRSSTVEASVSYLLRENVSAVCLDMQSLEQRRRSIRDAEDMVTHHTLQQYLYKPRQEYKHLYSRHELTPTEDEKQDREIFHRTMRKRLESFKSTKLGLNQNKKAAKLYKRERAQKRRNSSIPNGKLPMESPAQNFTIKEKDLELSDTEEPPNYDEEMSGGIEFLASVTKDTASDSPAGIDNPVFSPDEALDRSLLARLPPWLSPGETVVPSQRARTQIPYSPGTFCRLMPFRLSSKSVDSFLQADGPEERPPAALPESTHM
T1 sequence (Q99653 2-195 partner limits assumed): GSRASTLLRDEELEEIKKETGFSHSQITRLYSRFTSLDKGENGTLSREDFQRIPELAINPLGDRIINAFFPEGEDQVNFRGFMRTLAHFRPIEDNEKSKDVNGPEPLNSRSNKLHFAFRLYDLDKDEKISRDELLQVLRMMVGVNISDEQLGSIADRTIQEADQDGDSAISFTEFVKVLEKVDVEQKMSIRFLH
Experimental: The ability of compounds to inhibit human and rat NHE-3-mediated Na^+-dependent H^+ antiport after application and washout was measured using a modification of the pH sensitive dye method described above. PS120 fibroblasts stably expressing human NHE3 and NHERF2 were obtained from Mark Donowitz (Baltimore, Md.). Opossum kidney (OK) cells were obtained from the ATCC and propagated per their instructions. The rat NHE-3 gene was introduced into OK cells via electroporation, and cells were seeded into 96 well plates and grown overnight. Medium was aspirated from the wells, cells were washed once with NaCl-HEPES buffer (100 mM NaCl, 50 mM HEPES, 10 mM glucose, 5 mM KCl, 2 mM CaCl2, 1 mM MgCl2, pH 7.4), then overlayed with NaCl-HEPES buffer containing 0-30 μM test compound. After a 60 min incubation at room temperature, the test drug containing buffer was aspirated from the cells. Following aspiration, cells were washed once with NaCl-HEPES buffer without drug, then incubated for 30 min at 37° C. with NH4Cl-HEPES buffer (20 mM NH4Cl, 80 mM NaCl, 50 mM HEPES, 5 mM KCl, 2 mM CaCl2, 1 mM MgCl2, pH 7.4) containing 5 μM BCECF-AM. Cells were washed once with Ammonium free, Na^+-free HEPES (100 mM choline, 50 mM HEPES, 10 mM glucose, 5 mM KCl, 2 mM CaCl2. 1 mM MgCl2. pH 7.4) and incubated in the same buffer for 10 minutes at room temperature to lower intracellular pH. NHE-3-mediated recovery of neutral intracellular pH was initiated (10 min after compound washout) by addition of Na-HEPES buffer. […] Changes in intracellular pH were monitored using a FLIPR Tetra® (Molecular Devices, Sunnyvale, Calif.) by excitation at λex 439 to 505 nm, and measuring BCECF fluorescence at λem 538 nm. The initial rate of the fluorescence ratio change was used as a measure of NHE-mediated Na^+/H^+ activity, and reported as the change in fluorescence ratio per minute.

[3] = molecular target: T2, rat NHE-3 (Rattus norvegicus, UniProt P26433); test: Cell-based assay of NHE-3 activity (Pharmacological Test Example 1); conditions: OK cells expressing rat NHE-3; 0-30 uM test compound, 5 uM EIPA; read-out: rat NHE-3 Average pIC50 (converted)
T2 construct: expressed in transfected cells; host or cells: Opossum kidney (OK) cells (ATCC), electroporated
T2 sequence (P26433 29-831): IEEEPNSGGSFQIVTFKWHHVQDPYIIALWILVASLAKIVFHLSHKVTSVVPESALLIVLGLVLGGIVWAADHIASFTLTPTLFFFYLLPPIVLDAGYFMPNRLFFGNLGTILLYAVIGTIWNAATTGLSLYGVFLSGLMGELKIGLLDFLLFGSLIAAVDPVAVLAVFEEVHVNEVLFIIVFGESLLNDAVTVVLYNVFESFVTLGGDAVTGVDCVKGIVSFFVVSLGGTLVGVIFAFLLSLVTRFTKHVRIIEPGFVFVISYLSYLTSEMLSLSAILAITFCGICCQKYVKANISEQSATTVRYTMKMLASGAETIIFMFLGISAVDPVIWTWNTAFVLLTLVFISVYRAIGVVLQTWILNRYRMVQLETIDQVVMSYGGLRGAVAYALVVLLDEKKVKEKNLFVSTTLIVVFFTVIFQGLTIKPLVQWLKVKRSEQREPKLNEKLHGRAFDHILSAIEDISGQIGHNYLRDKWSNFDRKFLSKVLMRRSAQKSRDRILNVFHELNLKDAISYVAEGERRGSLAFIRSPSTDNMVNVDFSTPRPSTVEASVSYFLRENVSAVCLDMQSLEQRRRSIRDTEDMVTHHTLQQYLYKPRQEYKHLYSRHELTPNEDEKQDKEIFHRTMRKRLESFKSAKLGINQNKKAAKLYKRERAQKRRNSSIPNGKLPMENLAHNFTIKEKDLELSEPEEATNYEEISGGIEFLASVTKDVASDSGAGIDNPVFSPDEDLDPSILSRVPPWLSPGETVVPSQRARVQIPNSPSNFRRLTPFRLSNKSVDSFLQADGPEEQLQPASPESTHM
Procedure, shortened: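 OK cells electroporated with rat NHE-3, loaded with 5 uM BCECF-AM in NH4Cl-HEPES (pH 7.4) for 30 min at room temperature, then acid-loaded 10 min in Na+-free choline buffer. Na+-dependent H+ antiport read as initial rate of pH-dye change; pIC50 from 3-6 replicate averages.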

Compound	% Fecal water (% of control) [1]	% Fecal water [1] [%]	% inhibition [2]	IC50 [2] [nM]	IC50 [3] [nM]
CN1Cc2c(Cl)cc(Cl)cc2[C@H](c2cccc(S(=O)(=O)NCCOCCOCCNC(=O)NCCCCNC(=O)NCCOCCOCCNS(=O)(=O)c3cccc([C@@H]4CN(C)Cc5c(Cl)cc(Cl)cc54)c3)c2)C1 (single isomer, unassigned) [Example 202, (S or R)—N,N′-(10,17-dioxo-3,6,21,24-tetraoxa-9,11,16,18-tetraazahexacosane-1,26-diyl)bis(3-((S)-6,8-dichloro-2-methyl-1,2,3,4-tetrahydroisoquinolin-4-yl)benzenesulfonamide) bis-hydrochloride salt]	134% of control	63	C (>70%)	< 100	< 100
CN1Cc2c(Cl)cc(Cl)cc2[C@H](c2cccc(S(=O)(=O)NCCOCCOCCNC(=O)Nc3ccc(NC(=O)NCCOCCOCCNS(=O)(=O)c4cccc([C@@H]5CN(C)Cc6c(Cl)cc(Cl)cc65)c4)cc3)c2)C1 (single isomer, unassigned) [Example 203, (S or R)—N,N′-(2,2′-(2,2′-(2,2′-(1,4-phenylenebis(azanediyl))bis(oxomethylene)bis(azanediyl)bis(ethane-2,1-diyl))bis(oxy)bis(ethane-2,1-diyl))bis(oxy)bis(ethane-2,1-diyl))bis(3-((S or R)-6,8-dichloro-2-methyl-1,2,3,4-tetrahydroisoquinolin-4-yl)benzenesulfonamide) bis-hydrochloride salt]	130% of control	61	C (>70%)	< 100	< 100

Reference: patent US20190374533A1, “COMPOUNDS AND METHODS FOR INHIBITING NHE-MEDIATED ANTIPORT IN THE TREATMENT OF DISORDERS ASSOCIATED WITH FLUID RETENTION OR SALT OVERLOAD AND GASTROINTESTINAL TRACT DISORDERS” (Ardelyx, Inc., priority 2008, published 2019)
